Earlier results as cited in US20080287669A1, “METHODS AND COMPOSITIONS FOR IDENTIFYING COMPOUNDS USEFUL IN NUCLEIC ACID PURIFICATION” (priority 2007, published 2008).
Counter-ions that a name gives are not always drawn. Like-named read-outs stand apart in the source and are kept apart here.

Conditions: for Dielectric Constant: Table 4, exemplary solvents
[1] = Table 2, very soluble organic solvents
[2] = Table 3, miscible organic solvents
[3] = Table 1, soluble organic solvents

Row | SMILES | Dielectric Constant (DC) [2] | Dielectric Constant (DC) [3] | further results
1 | COCCOC(C)=O [ethylene glycol monomethylether acetate] |  |  | Dielectric Constant (DC) [1]: 8.25
2 | CCOCCOC(C)=O [ethylene glycol ethylether acetate] |  |  | Dielectric Constant (DC) [1]: 7.57
3 | CCN [ethylamine] | 8.7 |  | 
4 | CCCC(=O)O [butanoic acid] | 2.98 |  | 
5 | C1COCCN1 [morpholine] | 7.42 |  | 
6 | CCC(=O)O [propanoic acid] | 3.44 |  | 
7 | CC(=O)CC(C)(C)O [diacetone alcohol] | 18.2 |  | 
8 | O=S1(=O)CCCC1 [sulfolane] | 43.26 |  | Dielectric Constant: 43.26
9 | O=Cc1ccco1 [furfural] |  | 42.1 | 
10 | CN1CCCC1=O [N-methyl-2-pyrrolidone] |  |  | Dielectric Constant (DC) [1]: 32.2
11 | CCCC=O [butanal] |  | 13.45 | 
12 | CC1CCCO1 (stereo not shown) [2-methyl-tetrahydrofuran] |  | 6.97 | 
13 | CCCCNCCCC [dibutylamine] |  | 2.77 | 
14 | CCOC=O [ethyl formate] |  | 8.57 | 
15 | OCCCCCO [1,5-pentanediol] |  | 26.2 | 
16 | CC(O)CO (stereo not shown) [1,2-propanediol] | 27.5 |  | 
17 | Cc1cc(C)cc(O)c1 [3,5-xylenol] |  | 9.06 | 
18 | NCCO [ethanolamine] | 31.94 |  | 
19 | Cc1cccnc1 [3-picoline] | 11.1 |  | 
20 | CC(N)=O [acetamide] |  |  | Dielectric Constant (DC) [1]: 67.6
21 | CCCCN [butylamine] | 4.71 |  | 
22 | CCO [ethanol, reference compound] | 25.3 |  | Dielectric Constant: 25.3
23 | C[S+](C)[O-] [dimethylsulfoxide] | 47.24 |  | Dielectric Constant (DC): 38; Dielectric Constant: 47.2
24 | COC [dimethylether] |  | 6.18 | 

Row | SMILES | Dielectric Constant (DC) [2] | Dielectric Constant (DC) [3] | further results
25 | Cc1ccc(C)c(O)c1 [2,5-xylenol] |  | 5.36 | 
26 | CC1COC(=O)O1 (stereo not shown) [propylene carbonate] |  |  | Dielectric Constant (DC) [1]: 66.14
27 | CCOC(=O)CC(C)=O [ethylacetoacetate] |  |  | Dielectric Constant (DC) [1]: 14
28 | CC(C)CN [isobutylamine] | 4.43 |  | 
29 | S=C=S [carbon disulfide] |  | 2.63 | 
30 | CCCCOCCO [ethyleneglycol monobutyl ether] | 9.3 |  | 
31 | NC1CCCCC1 [cyclohexylamine] |  | 4.55 | 
32 | CCOCCOCCOCC [diethylene glycol diethyl ether] |  |  | Dielectric Constant (DC) [1]: 5.7
33 | O=C1CCCCC1 [cyclohexanone] |  | 16.1 | 
34 | FC(F)Cl [chlorodifluoromethane] |  |  | Dielectric Constant (DC) [1]: 6.11
35 | CC(O)CCO (stereo not shown) [1,3-butanediol] | 28.8 |  | 
36 | OCCOCCOCCO [triethyleneglycol] | 23.69 |  | 
37 | CN(C)C [trimethylamine] |  |  | Dielectric Constant (DC) [1]: 2.44
38 | C1CCOC1 [tetrahydrofuran] | 7.52 |  | Dielectric Constant: 7.52
39 | CC(=O)C=C(C)C [mesityl oxide] |  | 15.6 | 
40 | CCCCCN [pentylamine] | 4.27 |  | 
41 | C=CCO [allyl alcohol] | 19.7 |  | 
42 | OCCCO [1,3-propanediol] | 35.1 |  | 
43 | CCCNCCC [dipropylamine] |  | 3.07 | 
44 | Cc1ccnc(C)c1 [2,4-lutidine] |  |  | Dielectric Constant (DC) [1]: 9.6
45 | CC(=O)OC(C)=O [acetic anhydride] |  |  | Dielectric Constant (DC) [1]: 22.45
46 | COC(C)=O [methylacetate] |  |  | Dielectric Constant (DC) [1]: 7.07
47 | O=C(O)C(Cl)(Cl)Cl [trichloroacetic acid] |  |  | Dielectric Constant (DC): 4.6
48 | C1CCNC1 [pyrrolidine] | 8.3 |  | 

Row | SMILES | Dielectric Constant (DC) [2] | Dielectric Constant (DC) [3] | further results
49 | NCCNCCN [diethylenetriamine] | 12.62 |  | 
50 | CCOP(=O)(OCC)OCC [triethyl phosphate] |  | 13.2 | 
51 | Cc1ccccn1 [2-picoline] |  |  | Dielectric Constant (DC) [1]: 10.18
52 | FC(F)(Cl)Cl [dichlorodifluoromethane] |  | 3.5 | 
53 | Brc1cccc2ccccc12 [1-bromonaphthalene] |  | 4.77 | 
54 | Cc1cccc(C)n1 [2,6-lutidine] | 7.33 |  | 
55 | CCCCC(=O)O [pentanoic acid] |  | 2.66 | 
56 | Cc1ccccc1O [o-cresol] |  | 6.76 | 
57 | CCC=O [propanal] |  | 18.5 | 
58 | CCC(=O)CC [diethylketone] |  |  | Dielectric Constant (DC) [1]: 17
59 | OCCCCC(O)CO (stereo not shown) [1,2,6-hexanetriol] |  |  | Dielectric Constant (DC) [1]: 31.5
60 | CCCCCC(C)=O [methyl pentyl ketone] |  |  | Dielectric Constant (DC) [1]: 11.95
61 | CC=O [acetaldehyde] | 21 |  | 
62 | OCc1ccco1 [furfuryl alcohol] | 16.85 |  | 
63 | CC(=O)O [acetic acid] | 6.2 |  | 
64 | OCc1ccccc1 [benzyl alcohol] |  | 11.92 | 
65 | CCOC(C)=O [ethyl acetate] |  | 6.08 | 
66 | Cc1ccncc1 [4-picoline] | 12.2 |  | 
67 | CCCC(C)O (stereo not shown) [2-pentanol] |  |  | Dielectric Constant (DC) [1]: 13.71
68 | CC(C)O [2-propanol] | 20.18 |  | 
69 | OCC(O)CO [glycerol] | 46.53 |  | 
70 | C[N+](=O)[O-] [nitromethane] |  | 37.27 | 
71 | NC=O [formamide] |  |  | Dielectric Constant (DC): 111
